From US8609651B2, “Pharmaceutical compositions of benzodiazepines and method of use thereof” (Jazz Pharmaceuticals, Inc., priority 2006, dated 2013)
Values after ≈ are worked out from the molar mass of the structure shown.

Assays:
[1] = Solubility of clonazepam in glycol ethers at 25° C.; details: neat solvent, organic solvent or mixture, thermodynamic from solid
Protocol: 10 mg of clonazepam was weighed into glass vials used in the Pfeiffer mono-dose spray system (Pfeiffer of America, Princeton, N.J.). Four samples of each of four solvents were prepared as follows. 130-μL of each solvent was pipetted into the vial, which was then stoppered with a black chlorobutyl rubber stopper.
The vials were removed from the chamber, placed inside polyethylene centrifuge vials, and centrifuged for 2 minutes at 5000 rpm. 10 μL of liquid was then sampled from each vial, accurately weighed, and diluted with 1 mL of acetonitrile. The drug concentration was analyzed by UV using an Agilent HPLC system with no column, 10 μL injection volume, acetonitrile mobile phase, 0.3 mL/min and UV detection at 350 nm.

[2] = in vivo; cited from earlier work
[3] = qEEG mapping in volunteers; type: in vivo; details: human, oral
[4] = Saturated solubility in receiver fluid systems (HPLC); details: 37 °C, thermodynamic from solid
Protocol: Following the stability studies, a suitable receiver fluid was developed in order to ensure that sink conditions for tested drug were such that the drug release was limited by the solubility of the drug in the receiver fluid. […] Briefly, drug was saturated into different receiver fluid systems by adding excess drug and allowed to stir with a magnetic flea over a period of 2 h at 37° C. Each saturated solution was then filtered using a 0.2 μm syringe filter and the resultant solution was assayed via HPLC.
Calibration curves for clonazepam were constructed between 0.2 to 10 μg/mL with appropriate replicates to ensure repeatability and linearity.
Standards were prepared in receiver fluid (10% ethanol in buffer 6). […] The filtration at room temperature was performed as quickly as possible to minimize any drug precipitation as the temperature dropped from 37° C. during filtration.

[5] = Solubility of clonazepam in neat solvents
Protocol: The solubility of clonazepam in a number of neat solvents was determined using standard methods.

`O=C1CN=C(c2ccccc2Cl)c2cc([N+](=O)[O-])ccc2N1` [Clonazepam, 5-(2-chlorophenyl)-1,3-dihydro-7-nitro-2H-1,4-benzodiazepin-2-one] gave a solubility ([1]; 1,2-dimethyxoethane) of 39.3 mg/mL (≈ 124 mM), a solubility ([1]; di(ethylene glycol) diethyl ether) of 19 mg/mL (≈ 60.2 mM) and a solubility ([1]; di(ethylene glycol) methyl ether) of 56.4 mg/mL (≈ 179 mM). For the same compound, the solubility ([1]; diethylene glycol monoethyl ether (DEGEE)) was 41.8 mg/mL (≈ 132 mM), the “amount excreted unchanged in the urine” value [2] was “less than 0.5 % of a dose” and the “excreted in the feces” value [2] was 9-27 % of a dose. The half-life [2] was 18 to 50 h, the “roughly equal dose (potency equivalence)” value [2] was about 0.25 mg and the “time after dosing at which EEG pattern (increased delta and beta, decreased alpha and theta) was noted” value [3] was “approximately 2 hours”. The solubility at 2 h ([4]; pH 6, aqueous buffer, buffer pH 6, 37° C.) was 0.0137 mg/mL (≈ 0.0433 mM), the solubility at 2 h ([4]; pH 6, aqueous with cosolvent or surfactant or cyclodextrin, 20% ethanol in buffer pH6, 37° C.) was 0.0823 mg/mL (≈ 0.261 mM) and the solubility at 2 h ([4]; pH 6, aqueous with cosolvent or surfactant or cyclodextrin, receiver solution, 10% ethanol in buffer pH 6, 37° C.) was 0.0293 mg/mL (≈ 0.0929 mM). It also gave a solubility ([5]; PEG 200 (neat solvent), organic solvent or mixture) of 30.3 mg/mL (≈ 96 mM), a solubility ([5]; PEG 300 (neat solvent), organic solvent or mixture) of 37 mg/mL (≈ 117 mM) and a solubility ([5]; Transcutol (neat solvent), organic solvent or mixture) of 38.7 mg/mL (≈ 123 mM). For the same compound, the solubility ([5]; glycofurol (neat solvent), organic solvent or mixture) was 67.3 mg/mL (≈ 213 mM), the solubility ([5]; propylene glycol (neat solvent), organic solvent or mixture) was 3.4 mg/mL (≈ 10.8 mM) and the solubility ([5]; triacetin (neat solvent), organic solvent or mixture) was 5.8 mg/mL (≈ 18.4 mM). The solubility ([5]; water) was under 0.1 mg/mL.
